Earlier results as cited in patent EP0303681B1 (priority 1987, dated 1988).

## Sc1ncnc2nc[nH]c12 [6 MP, 6-mercaptopurine]
Alkaline solutions
  solubility in alkaline solutions: soluble
Hot ethanol
  solubility in hot ethanol: soluble
water
  solubility in water: insoluble
